The source of these data is ChEMBL document CHEMBL2417443, “Efficient synthesis and antiproliferative activity of novel thioether-substituted flavonoids” (Eur J Med Chem, 2013).

Holding throughout (type): functional, cell-based
Test [1] is described as follows: Cytotoxicity against human LM7 cells after 72 hrs by MTT assay. The conditions noted are these: LM7, 72 h. A general note: Tetrazolium dyes change colour on reduction, which living cells bring about.
In the next test the test system is HeLa. Put plainly: Cytotoxicity against human HeLa cells after 72 hrs by MTT assay.
The test system of another test is HEp-2. In words: Cytotoxicity against human Hep2 cells after 72 hrs by MTT assay. The conditions noted are these: HEp-2, 72 h.
The subject of another test is SW480. In words: Cytotoxicity against human SW480 cells after 72 hrs by MTT assay. The conditions noted are these: SW480, 72 h.
A short description of test [2]: Cytotoxicity against human MDA-MB-435S cells after 72 hrs by MTT assay.
The test system of the next test is MCF7. Put plainly: Cytotoxicity against human MCF7 cells after 72 hrs by MTT assay. The conditions noted are these: MCF7, 72 h.

Some results are limits rather than exact numbers.

On to `O=c1cc(CSc2nc3ccccc3s2)oc2ccc(Cl)cc12`, for which the IC50 (in test [1]; with HeLa; in the test with HEp-2; in the test with SW480; in test [2]; in the test with MCF7) was more than 25 µM in each case.

Consider `Cc1cc(O)cc2oc(=O)cc(CSc3nc4ccccc4[nH]3)c12`, for which the IC50 (in test [1]; in the test on HeLa; in the test on HEp-2; in the test on SW480; in test [2]; in the test on MCF7) was more than 25 µM throughout.

Consider `Cc1cc(C)nc(SCn2cnc3c(Cl)cccc3c2=O)n1`, for which the IC50 (in test [1]; in the test on HeLa; with HEp-2; in the test with SW480; in test [2]; in the test on MCF7) was more than 25 µM in each case.

For the compound `O=c1c2cccc(Cl)c2ncn1CSc1nc2ccccc2o1`, the IC50 (in test [1]; in the test with HeLa; in the test on HEp-2; in the test on SW480; in test [2]; in the test on MCF7) was more than 25 µM throughout.

`Cc1cc(O)cc2oc(=O)cc(CSc3nc4ccccc4o3)c12`: the 50% inhibitory concentration (IC50) (in test [1]; with HeLa; with HEp-2; in the test with SW480; in test [2]; in the test with MCF7) was more than 25 µM in each case.

As for `O=c1c2ccccc2ncn1CSc1nc2ccccc2s1`, the IC50 (in test [1]; in the test on HeLa; in the test with HEp-2; with SW480; in test [2]; in the test with MCF7) was more than 25 µM throughout.

Consider `Cc1cc(C)nc(SCc2cc(=O)c3ccccc3o2)n1`, for which the IC50 (in test [1]; with HeLa; in the test with HEp-2; in the test with SW480; in test [2]; with MCF7) was more than 25 µM each time.

In the case of `Cc1ccc2oc(CSc3nc(C)cc(C)n3)cc(=O)c2c1`, the IC50 (in test [1]; in the test on HeLa; with HEp-2; in the test on SW480; in test [2]; in the test on MCF7) was more than 25 µM in each case.

For `Cc1cc(C)nc(SCc2cc(=O)c3cc(Cl)ccc3o2)n1`, the IC50 (in test [1]; with HeLa; in the test with HEp-2; in the test with SW480; in test [2]; in the test on MCF7) was more than 25 µM in each case.

Take `Cc1cc(C)n2nc(SCc3nnc(SCc4coc5ccccc5c4=O)n3-c3ccccc3)nc2n1`: the half-inhibitory concentration (IC50) (in general, the midpoint of a concentration-inhibition curve) is 16.6 µM in test [1]; more than 25 µM in the test on HeLa; 22.1 µM with HEp-2; 12.4 µM in the test on SW480; 2.9 µM in test [2]; more than 25 µM in the test with MCF7.

With `Nc1nnc(SCc2cc(=O)oc3c2ccc2ccccc23)s1`, the IC50 (in test [1]; in the test on HeLa; with HEp-2; in the test on SW480; in test [2]; in the test with MCF7) was more than 25 µM in each case.

As to `Cc1cc(C)nc(SCn2cnc3ccccc3c2=O)n1`, the IC50 (in test [1]; in the test on HeLa; in the test with HEp-2; with SW480; in test [2]; in the test with MCF7) was more than 25 µM each time.

Regarding `Cc1nnc(SCc2cc(=O)c3ccccc3o2)s1`, the IC50 (in test [1]; in the test with HeLa; in the test with HEp-2; in the test on SW480; in test [2]; in the test with MCF7) was more than 25 µM in each case.

As to `Cc1cc(C)n2nc(SCn3cnc4ccccc4c3=O)nc2n1`, the IC50 (in test [1]; with HeLa; in the test with HEp-2; in the test on SW480; in test [2]; in the test on MCF7) was more than 25 µM each time.

For the compound `Cc1cc(C)n2nc(SCc3nnc(SCc4coc5ccccc5c4=O)n3N)nc2n1`, the concentration for half-maximal inhibition (IC50) is 1.9 µM in test [1]; more than 25 µM with HeLa; 7.1 µM in the test with HEp-2; 3.6 µM in the test on SW480; 3 µM in test [2]; more than 25 µM with MCF7.

As for `COC(=O)Nc1ccc2c(CSc3nnc(CSc4nc(C)cc(C)n4)s3)cc(=O)oc2c1`, the IC50 worked out at 2.3 µM in test [1]; 15.9 µM in the test with HeLa; 2.1 µM in the test on HEp-2; 3.7 µM with SW480; 4.6 µM in test [2]; 9.4 µM with MCF7.

For `Cc1cc(C)n2nc(SCc3nnc(SCc4cc(=O)c5ccccc5o4)n3N)nc2n1`, the concentration for half-maximal inhibition (IC50) (in test [1]; in the test with HeLa; with HEp-2; in the test with SW480; in test [2]; in the test on MCF7) was more than 25 µM throughout.

For `O=c1c2ccccc2ncn1CSc1nc2ccccc2o1`, the IC50 (in test [1]; in the test on HeLa; in the test with HEp-2; in the test on SW480; in test [2]; with MCF7) was more than 25 µM throughout.

Regarding `Cc1cc(C)n2nc(SCc3nnc(SCc4cc(=O)c5ccccc5o4)o3)nc2n1`, the IC50 (in test [1]; in the test with HeLa; in the test on HEp-2; in the test with SW480; in test [2]; in the test with MCF7) was more than 25 µM throughout.

As to `Nc1nnc(SCc2coc3ccccc3c2=O)s1`, the IC50 in test [1] was 0.73 µM; in the test on HeLa it was more than 25 µM; with HEp-2, 1.5 µM; with SW480 it was more than 25 µM; in test [2], 0.95 µM; in the test on MCF7 it was more than 25 µM.

`Cc1nnc(SCc2coc3ccc(Cl)cc3c2=O)s1`: the IC50 in test [1] is 7.6 µM; in the test with HeLa, 9.7 µM; with HEp-2 it was 4.2 µM; in the test on SW480, 3.2 µM; in test [2], 2.2 µM; with MCF7, 13.4 µM.

As for `Nc1nnc(SCn2cnc3ccccc3c2=O)s1`, the concentration for half-maximal inhibition (IC50) (in test [1]; with HeLa; in the test on HEp-2; in the test on SW480; in test [2]; in the test with MCF7) was more than 25 µM in each case.

With `Cc1nnc(SCc2cc(=O)c3cc(Cl)ccc3o2)s1`, the IC50 (in test [1]; in the test with HeLa; in the test on HEp-2; in the test with SW480; in test [2]; in the test on MCF7) was more than 25 µM throughout.

For `Cc1cc(C)n2nc(SCc3nnc(SCc4cc(=O)c5ccccc5o4)n3-c3ccccc3)nc2n1`, the IC50 (in test [1]; in the test on HeLa; in the test with HEp-2; in the test on SW480; in test [2]; in the test on MCF7) was more than 25 µM each time.

As for `Cc1cc(C)n2nc(SCc3cc(=O)c4cc(Cl)ccc4o3)nc2n1`, the IC50 (in test [1]; in the test on HeLa; in the test on HEp-2; in the test on SW480; in test [2]; with MCF7) was more than 25 µM throughout.
